Source: patent US10815505B2, “Microbial oil extracted from stramenopiles” (priority 2009, dated 2020)
Values joined by “and” are separate entries in the source; they are usually repeats but may differ in a detail not shown here. Identical values can stand only once. Like-named read-outs stand apart in the source and are kept apart here.

Tests used:
[1] = system: Thraustochytrium aureum-derived Δ5 desaturase; assay: Fatty acid composition of Δ5 desaturase-introduced Aurantiochytrium sp. mh0186 (mhΔ5neo^r), GC analysis; format: cell-based; conditions: host mh0186; 0.1 mM ETA (to EPA) or DGLA (to AA) in medium
Protocol: The transformed clone obtained in Example 6, (3), v. was cultured for 3 days, and mhneo^r and mhΔ5neo^r were analyzed by GC analysis after extracting the fatty acid methyl ester. Separately, 0.1 mM ETA or DGLA, exogenous fatty acids used as a substrate by Δ5 desaturase, was added to medium for incorporation into Labyrinthula, and GC analysis was performed after extracting the fatty acids as in the overexpression experiment using yeast. A gas chromatograph GC-2014 (Shimadzu Corporation) was used for the GC analysis, which was performed under the following conditions. Column: HR-SS-10 (30 m×0.25 mm; Shinwa Chemical Industries Ltd.), column temperature: 150° C.→(5° C./min)→220° C. (10 min), carrier gas: He (1.3 mL/min).
ETA or DGLA used as a substrate by Δ5 desaturase was also added to medium at 0.1 mM for incorporation into Labyrinthula. As a result, the precursor substances converted into EPA and AA in Labyrinthula, and the content increased, as observed in the Δ5 desaturase expression experiment using yeast (Tables 9 and 10). […] This experiment was repeated in three or more confirmatory experiments to confirm reproducibility. All experiments produced the same results.

[2] = system: T. aureum-derived Δ5 desaturase; format: cell-based, Thraustochytrium aureum; conditions: S. cerevisiae expressing TauΔ5des, (product × 100)/(substrate + product)
Protocol: In order to verify that the acquired gene was Δ5 desaturase, overexpression experiment was conducted using a budding yeast S. cerevisiae as a host. First, the acquired gene was incorporated at the EcoRI/XhoI site of a yeast vector pYES2/CT (Invitrogen) to construct an expression vectorpYΔ5des. The constructed expression vector pY5Δdes was then introduced into S. cerevisiae, and GC analysis was performed after extracting and methylating the transfectant fatty acids obtained by using the lithium acetate technique. A gas chromatograph GC-2014 (Shimadzu Corporation) was used for the GC analysis, which was performed under the following conditions. Column: HR-SS-10 (30 m×0.25 mm; Shinwa Chemical Industries Ltd.), column temperature: 150° C.→(5° C./min)→220° C. (10 min), carrier gas: He (1.3 mL/min). GC-17A and GCMS-QP-5000 (Shimadzu Corporation) were used for GC-MS analysis, which was performed using a DB-1 capillary column (0.25 mmi.d.×30 m, film thickness 0.25 μm; Agilent) under the following conditions: column temperature 160° C.→(4° C./min)→260° C., injector port temperature 250° C. For peaks that caused troubles in the analyses, the fatty acids were analyzed after picolinyl esterification, using the same apparatuses and columns under the temperature condition 240° C.→(2.5° C./min)→260° C. (15 min)→(2.5° C./min)→280° C.

[3] = system: A. limacinum transfectants; assay: G418 resistance on PDA agar plate, ub-Neo^r transfectants; format: cell-based, Aurantiochytrium limacinum mh0186
Protocol: (§1) The transfectants were cultured in 0.5 mg/ml G418-containing GY liquid medium. The wild-type strain was cultured in GY liquid medium containing no G418. The culture fluids of these strains were spotted in 10-μl portions on PDA agar plate media containing G418 (0, 0.2, 0.5, 1, 2, 4 mg/ml), and growth on the agar plate media was observed after culturing the cells at 25° C. for 2 days. It was found as a result that the proliferation was inhibited at 0.2 mg/ml G418 in the wild-type strain, whereas the transfectants proliferated even in the presence of 4 mg/ml G418 (FIG. 13A). Further, there was no change in G418 resistance, and proliferation was observed even at a G418 concentration of 32 mg/ml in a similar experiment conducted with PDA agar plate media containing G418 (0, 2, 4, 8, 16, 32 mg/ml) after subculturing the transfectants five times in a GY liquid medium containing no G418 (FIG. 13B).

[4] = system: A. limacinum wild-type strain; assay: G418 resistance on PDA agar plate, wild-type strain; format: cell-based, Aurantiochytrium limacinum mh0186; conditions: 25° C., 2 days
Protocol: as §1

[5] = system: Saccharomyces cerevisiae (pYES2/CT, mock); assay: Mock (pYES2/CT) introduced yeast, GC analysis of fatty acids; format: cell-based; conditions: 100 × product/(product + substrate)
Protocol: By using a plasmid containing the full length of the P. pyriformis-derived Δ12 desaturase gene as a template, a PCR was performed with primers Pry-F (SEQ ID NO: 60 in the Sequence Listing) and Pyr-R (SEQ ID NO: 61 in the Sequence Listing), using a PrimeSTAR GC polymerase kit (Takara Bio). The PCR added a HindIII restriction enzyme site and an XbaI restriction enzyme site at the both ends. The amplified fragments were incorporated in a pGEM-T-Easy vector (Promega), and sequence analysis was performed. […] As a result, a Δ12 desaturase gene expression vector pYpΔ12Des was constructed. […] For peaks that caused troubles in the analyses, the fatty acids were analyzed after picolinyl esterification, using the same apparatuses and columns under the temperature condition 240° C.→(2.5° C./min)→260° C. […]
In order to verify that the Δ12 desaturase was encoded by the acquired gene, an expression vector was constructed, and an expression experiment was conducted using a budding yeast S. cerevisiae (Invitrogen) as a host. […] The conversion efficiency from oleic acid to linoleic acid was 23.5±1.23%, as calculated according to the following equation. […]

eicosatetraenoic acid [ETA] was tested, and the “Conversion efficiency of the precursor substance in Labyrinthula” value [1] was 75% and 75.2%, the “Percentage of substrate converted (%)” value [2] was 32% and the “Percentage of substrate converted (%)” value ([2]; listed as C20:4n-3 Eicosatetraenoic acid (ETA)) was 32.0%.

For `CCCCC/C=C\C/C=C\CCCCCCCC(=O)O` [18:2^Δ9,12, linoleic acid], the “Percentage of substrate converted (%)” value [2] was 0.0%.

`CCCCC/C=C\C/C=C\C/C=C\CCCCCCC(=O)O` [DGLA, dihomo-γ-linolenic acid] was tested, and the “Conversion efficiency of the precursor substance in Labyrinthula” value [1] was 63% and 62.9%, the “Percentage of substrate converted (%)” value [2] was 27% and the “Percentage of substrate converted (%)” value ([2]; listed as C20:3n-6 Dihomo-g-linolenic acid (DGLA)) was 27.0%.

For `CC/C=C\C/C=C\C/C=C\CCCCCCCC(=O)O` [18:3^Δ9,12,15, α-linolenic acid], the “Percentage of substrate converted (%)” value [2] was 0.0%.

For “Eicosatrienoic acid [C20:3n-3 Eicosatrienoic acid]”, the “Percentage of substrate converted (%)” value [2] was 0.0%.

With `CN[C@@H]1[C@@H](O)[C@@H](O[C@@H]2[C@@H](O)[C@H](O[C@H]3O[C@H]([C@@H](C)O)[C@@H](O)[C@H](O)[C@H]3N)[C@@H](N)C[C@H]2N)OC[C@]1(C)O` [G418] the “G418 concentration at which proliferation was still observed” value ([3]; PDA agar plate, 25° C., 2 days, highest tested 4 mg/ml) was 4 mg/mL, the “G418 concentration at which proliferation was still observed” value ([3]; after subculturing five times without G418, highest tested 32 mg/ml) was 32 mg/mL and the “G418 concentration at which proliferation was inhibited” value [4] was 0.2 mg/mL.

In the case of “Eicosadienoic acid [C20:2n-6 Eicosadienoic acid]”, the “Percentage of substrate converted (%)” value [2] is reported as 0.0%.

`CCCCCC/C=C\CCCCCCCC(=O)O` [16:1^Δ9] was tested, and the “Conversion efficiency (%)” value [5] was 0%.
